According to PubChem BioAssay AID334 (DTP/NCI, 2004):
“And” between values parts separate entries of the source, which are not always exact repeats. Equal values may be shown once. Toxic doses and inconclusive results are not listed.

Test system: CD2F1 mice, intracerebral P388 leukemia, median survival T/C%
Test: NCI In Vivo Anticancer Drug Screen. Data for tumor model P388 Leukemia (intracerebral) in CD2F1 (CDF1) mice
Details: endpoint: median survival time, higher = longer survival
Description: The antitumor activity of compounds was measured in mice bearing transplantable tumors. Survival or tumor size were measured and the results are expressed as the measurement made in the treated group (T) divided by the measurement made in the vehicle treated control group (C). The tumor model used in this assay is P388 Leukemia (intracerebral) in CD2F1 (CDF1) mice

[1] = dose: 50.0 mg/kg/injection, schedule: Q01DX009 (ip), vehicle: saline with Tween-80

CC[n+]1c(-c2ccccc2)c2cc(N)ccc2c2ccc(N)cc21
T/C (dose: 6.0 mg/kg/injection, schedule: Q01DX005 (ip), vehicle: saline): 102 % of control | T/C (dose: 12.0 mg/kg/injection, schedule: Q01DX005 (ip), vehicle: saline): 99 % of control and 106 % of control

COc1cc([C@@H]2c3cc4c(cc3[C@@H](OC3OC5CO[C@@H](c6cccs6)OC5C(O)C3O)[C@H]3COC(=O)[C@H]23)OCO4)cc(OC)c1O (stereo not given in full)
T/C (dose: 0.25 mg/kg/injection, schedule: Q01DX009 (ip), vehicle: saline): 108 % of control | T/C (dose: 0.5 mg/kg/injection, schedule: Q01DX009 (ip), vehicle: saline): 116 % of control | T/C (dose: 2.0 mg/kg/injection, schedule: Q01DX009 (ip), vehicle: saline): 152 % of control | T/C (dose: 4.0 mg/kg/injection, schedule: Q01DX009 (ip), vehicle: saline): 119 % of control

COc1cc2c(c3c1c(=O)c1ccccc1n3C)C=CC(C)(C)O2
T/C (dose: 128.0 mg/kg/injection, schedule: Q01DX005 (ip), vehicle: Klucel (hydroxypropylcellulose) (HPC)): 107 % of control | T/C (dose: 256.0 mg/kg/injection, schedule: Q01DX005 (ip), vehicle: Klucel (hydroxypropylcellulose) (HPC)): 112 % of control | T/C (dose: 512.0 mg/kg/injection, schedule: Q01DX005 (ip), vehicle: Klucel (hydroxypropylcellulose) (HPC)): 113 % of control

CCCCCC(=O)O[C@]1(C(C)=O)CC[C@H]2[C@@H]3CCC4=CC(=O)CC[C@]4(C)[C@H]3CC[C@@]21C
T/C (dose: 8.0 mg/kg/injection, schedule: Q01DX009 (ip), vehicle: Klucel (hydroxypropylcellulose) (HPC)): 118 % of control and 105 % of control | T/C (dose: 8.0 mg/kg/injection, schedule: Q01DX009 (ip), vehicle: saline with Tween-80): 535 % of control | T/C (dose: 16.0 mg/kg/injection, schedule: Q01DX009 (ip), vehicle: Klucel (hydroxypropylcellulose) (HPC)): 100 % of control and 111 % of control | T/C (dose: 16.0 mg/kg/injection, schedule: Q01DX009 (ip), vehicle: saline with Tween-80): 100 % of control | T/C (dose: 32.0 mg/kg/injection, schedule: Q01DX009 (ip), vehicle: Klucel (hydroxypropylcellulose) (HPC)): 118 % of control and 105 % of control | T/C (dose: 32.0 mg/kg/injection, schedule: Q01DX009 (ip), vehicle: saline with Tween-80): 98 % of control | T/C (dose: 64.0 mg/kg/injection, schedule: Q01DX009 (ip), vehicle: Klucel (hydroxypropylcellulose) (HPC)): 102 % of control and 111 % of control | T/C (dose: 128.0 mg/kg/injection, schedule: Q01DX009 (ip), vehicle: Klucel (hydroxypropylcellulose) (HPC)): 121 % of control and 100 % of control | T/C (dose: 128.0 mg/kg/injection, schedule: Q01DX009 (ip), vehicle: saline with Tween-80): 107 % of control | T/C (dose: 256.0 mg/kg/injection, schedule: Q01DX009 (ip), vehicle: Klucel (hydroxypropylcellulose) (HPC)): 120 % of control and 110 % of control | T/C (dose: 256.0 mg/kg/injection, schedule: Q01DX009 (ip), vehicle: saline with Tween-80): 98 % of control | T/C (dose: 512.0 mg/kg/injection, schedule: Q01DX009 (ip), vehicle: Klucel (hydroxypropylcellulose) (HPC)): 124 % of control and 105 % of control | T/C (dose: 512.0 mg/kg/injection, schedule: Q01DX009 (ip), vehicle: saline with Tween-80): 279 % of control

CN(Cc1cnc2nc(N)nc(N)c2n1)c1c(Cl)cc(C(=O)NC(CCC(=O)O)C(=O)O)cc1Cl (stereo not given)
T/C (dose: 16.0 mg/kg/injection, schedule: Q01DX005 (ip), vehicle: saline): 115 % of control | T/C (dose: 32.0 mg/kg/injection, schedule: Q01DX005 (ip), vehicle: saline): 121 % of control | T/C (dose: 128.0 mg/kg/injection, schedule: Q01DX005 (ip), vehicle: saline): 86 % of control

CN(C)CC(=O)c1ccc(O)c(O)c1
T/C (dose: 100.0 mg/kg/injection, schedule: Q01DX005 (ip), vehicle: saline): 103 % of control | T/C (dose: 100.0 mg/kg/injection, schedule: Q01DX005 (ip), vehicle: suspension in saline): 93 % of control | T/C (dose: 200.0 mg/kg/injection, schedule: Q01DX005 (ip), vehicle: saline): 108 % of control | T/C (dose: 200.0 mg/kg/injection, schedule: Q01DX005 (ip), vehicle: suspension in saline): 104 % of control | T/C (dose: 400.0 mg/kg/injection, schedule: Q01DX005 (ip), vehicle: saline): 104 % of control | T/C (dose: 400.0 mg/kg/injection, schedule: Q01DX005 (ip), vehicle: suspension in saline): 107 % of control

O=C1N(Cl)C(=O)C(c2ccc(Cl)cc2)(c2ccc(Cl)cc2)N1Cl
T/C [1]: 94 % of control | T/C (dose: 100.0 mg/kg/injection, schedule: Q01DX009 (ip), vehicle: saline with Tween-80): 105 % of control | T/C (dose: 200.0 mg/kg/injection, schedule: Q01DX009 (ip), vehicle: saline with Tween-80): 94 % of control

CCCCCCCCCCCCCCCCCC(=O)NC(Cc1ccc(N(CCCl)CCCl)cc1)C(=O)O (stereo not given)
T/C (dose: 1.88 mg/kg/injection, schedule: Q03HX008 (ip), vehicle: saline): 110 % of control | T/C (dose: 3.75 mg/kg/injection, schedule: Q03HX008 (ip), vehicle: saline): 115 % of control

Cc1cc(NC(=O)NCc2ccc(N3C(N)=NC(N)=NC3(C)C)cc2)ccc1S(=O)(=O)F
T/C (dose: 12.5 mg/kg/injection, schedule: Q01DX009 (ip), vehicle: saline with Tween-80): 105 % of control | T/C (dose: 25.0 mg/kg/injection, schedule: Q01DX009 (ip), vehicle: saline with Tween-80): 105 % of control | T/C (dose: 25.0 mg/kg/injection, schedule: Q04DX003 (ip), vehicle: saline with Tween-80): 111 % of control | T/C (dose: 25.0 mg/kg/injection, schedule: Q04DX003 (ip), vehicle: saline): 105 % of control | T/C [1]: 97 % of control | T/C (dose: 50.0 mg/kg/injection, schedule: Q04DX003 (ip), vehicle: saline with Tween-80): 101 % of control | T/C (dose: 50.0 mg/kg/injection, schedule: Q04DX003 (ip), vehicle: saline): 100 % of control | T/C (dose: 100.0 mg/kg/injection, schedule: Q04DX003 (ip), vehicle: saline with Tween-80): 90 % of control | T/C (dose: 100.0 mg/kg/injection, schedule: Q04DX003 (ip), vehicle: saline): 111 % of control | T/C (dose: 200.0 mg/kg/injection, schedule: Q04DX003 (ip), vehicle: saline with Tween-80): 116 % of control | T/C (dose: 200.0 mg/kg/injection, schedule: Q04DX003 (ip), vehicle: saline): 111 % of control | T/C (dose: 400.0 mg/kg/injection, schedule: Q04DX003 (ip), vehicle: saline): 105 % of control

CCN(CC)CCCC(C)Nc1c2ccc(Cl)cc2nc2ccc(OC)cc12 (stereo not given)
T/C (dose: 8.0 mg/kg/injection, schedule: Q01DX009 (ip), vehicle: suspension in saline): 96 % of control | T/C (dose: 16.0 mg/kg/injection, schedule: Q01DX009 (ip), vehicle: suspension in saline): 96 % of control | T/C (dose: 32.0 mg/kg/injection, schedule: Q01DX009 (ip), vehicle: suspension in saline): 100 % of control | T/C (dose: 64.0 mg/kg/injection, schedule: Q01DX009 (ip), vehicle: suspension in saline): 88 % of control

CC(=O)NNC(=O)c1ccccn1
T/C (dose: 100.0 mg/kg/injection, schedule: Q01DX005 (ip), vehicle: Klucel (hydroxypropylcellulose) (HPC)): 116 % of control and 100 % of control | T/C (dose: 200.0 mg/kg/injection, schedule: Q01DX005 (ip), vehicle: Klucel (hydroxypropylcellulose) (HPC)): 113 % of control and 100 % of control

CCN(CC)c1ccc2cc3ccc(=[N+](CC)CC)cc-3oc2c1
T/C (dose: 4.0 mg/kg/injection, schedule: Q01DX005 (ip), vehicle: suspension in saline): 102 % of control | T/C (dose: 8.0 mg/kg/injection, schedule: Q01DX005 (ip), vehicle: suspension in saline): 103 % of control

CCCCCCCC/C=C/CCCCCCCC(=O)Nc1ccn(C2OC(CO)C(O)C2O)c(=O)n1 (stereo not given)
T/C (dose: 12.5 mg/kg/injection, schedule: Q01DX009 (ip), vehicle: saline): 155 % of control | T/C (dose: 25.0 mg/kg/injection, schedule: Q01DX009 (ip), vehicle: saline): 197 % of control | T/C (dose: 50.0 mg/kg/injection, schedule: Q01DX009 (ip), vehicle: saline): 262 % of control

CN(Cc1cnc2nc(N[Si](C)(C)C)nc(N[Si](C)(C)C)c2n1)c1ccc(C(=O)NC(CCC(=O)O[Si](C)(C)C)C(=O)O[Si](C)(C)C)cc1 (stereo not given)
T/C (dose: 0.63 mg/kg/injection, schedule: Q01DX009 (ip), vehicle: olive oil, sesame oil, peanut oil): 110 % of control | T/C (dose: 0.63 mg/kg/injection, schedule: Q01DX009 (ip), vehicle: saline): 90 % of control | T/C (dose: 1.25 mg/kg/injection, schedule: Q01DX009 (ip), vehicle: olive oil, sesame oil, peanut oil): 110 % of control | T/C (dose: 1.25 mg/kg/injection, schedule: Q01DX009 (ip), vehicle: saline): 100 % of control | T/C (dose: 1.9 mg/kg/injection, schedule: Q04DX003 (ip), vehicle: saline): 95 % of control | T/C (dose: 2.5 mg/kg/injection, schedule: Q01DX009 (ip), vehicle: saline): 100 % of control | T/C (dose: 3.8 mg/kg/injection, schedule: Q04DX003 (ip), vehicle: saline): 95 % of control | T/C (dose: 5.0 mg/kg/injection, schedule: Q01DX009 (ip), vehicle: saline): 95 % of control | T/C (dose: 15.0 mg/kg/injection, schedule: Q04DX003 (ip), vehicle: saline): 110 % of control | T/C (dose: 30.0 mg/kg/injection, schedule: Q04DX003 (ip), vehicle: saline): 120 % of control | T/C (dose: 60.0 mg/kg/injection, schedule: Q04DX003 (ip), vehicle: saline): 115 % of control
